In patent US20040142920A1, “Bipiperidinyl-derivatives and their use as chemokine receptors inhibitors” (priority 2001, published 2004):

Assays:
Human CCR5 [1] = target: T1, Human CCR5 (Homo sapiens, UniProt P51681); test: CCR5 functional assay - Ca2+ mobilization in CHO K1 transfectants; type: cell-based; design: expressed in transfected cells
Procedure: b) CCR5 Functional Assay—Ca^2+ Mobilization
These CCR5 transfectants are used for assessing Ca^2+ mobilization in response to stimulation by the CCR5 ligands MIP-1α, MIP-1β, HCC-1(9-74) or RANTES. For the assay the cells are loaded with a Ca^2+-sensitive fluorochrome (Fluo3 or Fluo4). Ligand concentrations between 0.01-100 nM are used to induce Ca^2+ mobilization which is monitored in a fluorometer with appropriate settings.
To assess the activity of the compounds to be tested, a baseline fluorescence reading is taken after which the compounds at the desired concentration are added to the cells and fluorescence is further recorded for a certain time to assess whether compounds show agonistic effects. Next the agonist is added to the mixture and fluorescence monitored. The inhibition of Ca^2+ flux in the presence of the compounds to be tested is calculated from the inhibition of maximal fluorescence induced by the agonist. IC50 values are calculated from dose-response curves obtained with the compounds. […] For example, compounds of Example 1, 18 and 52 have an IC50 of 10, 9 and 4, respectively.

Human CCR5 [2] = target: T1, Human CCR5; test: CCR5 membrane binding assay (125-I MIP-1α radioligand)
Procedure: a) CCR5 Membrane Binding Assay
Human CCR5 is used to generate stable transfectants in CHO K1 cells. Membranes prepared from these CCR5 transfectants are used In a radioligand binding assay using 125-I MIP-1α as a ligand and the compounds of formula I are tested for inhibitory activity. The data are reported as IC50, i.e. the concentration of compound required to achieve 50% inhibition of [I-125]MIP-1α binding.

T1 sequence (P51681 whole entry): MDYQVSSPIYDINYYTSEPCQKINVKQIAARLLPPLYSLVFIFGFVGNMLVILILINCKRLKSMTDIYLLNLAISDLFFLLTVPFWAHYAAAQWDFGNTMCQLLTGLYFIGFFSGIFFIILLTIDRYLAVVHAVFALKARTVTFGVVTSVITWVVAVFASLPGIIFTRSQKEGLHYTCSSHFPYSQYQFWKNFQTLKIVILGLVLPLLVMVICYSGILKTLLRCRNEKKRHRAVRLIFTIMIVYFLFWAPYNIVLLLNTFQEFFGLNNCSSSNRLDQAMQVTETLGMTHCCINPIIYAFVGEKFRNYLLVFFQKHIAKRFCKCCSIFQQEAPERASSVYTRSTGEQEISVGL

Compound: CC1(N2CCC(N(c3ccccc3)c3ccccc3)CC2)CCN(C(=O)c2c(Cl)c[n+]([O-])cc2Cl)CC1 [Example 18]
- IC50 (Human CCR5 [1]; CCR5-transfected CHO K1 cells, agonist MIP-1α, MIP-1β, HCC-1(9-74) or RANTES, Fluo3 or Fluo4, read-out: IC50, inhibition of Ca2+ flux): 9 nM

Compound: Cc1cccc(C)c1C(=O)N1CCC(C)(N2CCC(N(Cc3ccccc3)c3ccc(Br)cc3)CC2)CC1 [Example 52, {4-[Benzyl-(4-bromo-phenyl)amino]-4′-methyl-[1,4′]bipiperidinyl-1′-yl}-(2,6-dimethyl-phenyl)-methanone]
- IC50 (Human CCR5 [1]): 4 nM

Compound: Cc1nc(CN(c2ccccc2)C2CCN(C3(C)CCN(C(=O)c4c(C)cc[n+]([O-])c4C)CC3)CC2)cs1 [Example 83, (2,4-Dimethyl-1-oxy-pyridin-3-yl)-{4′-methyl-4-[(2-methyl-thiazol-4-ylmethyl)-phenyl-amino]-[1,4′]bipiperidinyl-1′-yl}-methanone]
- IC50 (Human CCR5 [2]): 2 to 3 nM
